Source: paper PMC12636295 (bioRxiv, 2025)

Molecular target: T1, SCP2 (human sterol carrier protein 2) (Homo sapiens, UniProt P22307)
T1 sequence (P22307 425-547): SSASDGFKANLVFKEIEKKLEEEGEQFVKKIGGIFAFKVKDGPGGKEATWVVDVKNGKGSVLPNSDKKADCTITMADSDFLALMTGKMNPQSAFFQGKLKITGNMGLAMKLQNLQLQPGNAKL
Assay: NBD-SA fluorescence displacement titration
Format: binding

Ki: 8.4 ± 0.6 µM
SMILES: O=C(O)C(F)(F)C(F)(F)C(F)(F)C(F)(F)C(F)(F)C(F)(F)C(F)(F)C(F)(F)C(F)(F)C(F)(F)C(F)(F)C(F)(F)C(F)(F)C(F)(F)C(F)(F)F [PFHxDA]
